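96-well plates; 48 h exposure; 5 concentrations. Endpoints by linear interpolation between flanking doses. Not reached: highest tested concentration assigned. Here, GI50 denotes the concentration required for 50% inhibition of growth. TGI denotes the concentration required for complete inhibition of growth.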
Tests used:
Test in all cases: NCI tumour cell line growth inhibition, 48 h
[1] = system: K-562 leukemia
[2] = system: NCI-H460 lung
[3] = system: M14 melanoma
[4] = system: CCRF-CEM leukemia
[5] = system: OVCAR-5 ovarian
[6] = system: A498 renal
[7] = system: MCF7 breast
[8] = system: A549 NSCLC
[9] = system: MOLT-4 leukemia
[10] = system: TK-10 renal

SMILES: CC1CN1CC(O)C(O)CN1CC1C (configuration not stated)
- GI50 [1]: 2.02 µM
- TGI [1]: > 100 µM
- GI50 [2]: 0.319 µM
- TGI [2]: 13 µM
- GI50 [3]: 2.16 µM
- TGI [3]: 28.7 µM
- GI50 [4]: 1.41 µM
- TGI [4]: > 100 µM
- GI50 [5]: 13.4 µM
- TGI [5]: > 85.1 µM
- GI50 [6]: 3.61 µM
- TGI [6]: 16.8 µM
- GI50 [7]: 0.427 µM
- TGI [7]: 36.6 µM
- GI50 [8]: 2.08 µM
- TGI [8]: 33 µM
- GI50 [9]: 0.234 µM
- TGI [9]: 3.15 µM
- GI50 [10]: 7.7 µM
- TGI [10]: 65.7 µM

SMILES: O=C(N/N=C/c1cccc(O)c1O)c1ccccc1
- GI50 [1]: 1.29 µM
- TGI [1]: > 100 µM
- GI50 [2]: 0.878 µM
- TGI [2]: > 100 µM
- GI50 [3]: 0.695 µM
- TGI [3]: 11.5 µM
- GI50 [4]: 0.244 µM
- TGI [4]: > 59.7 µM
- GI50 [5]: 3.71 µM
- TGI [5]: > 100 µM
- GI50 [6]: 6.28 µM
- TGI [6]: 65.4 µM
- GI50 [7]: 0.357 µM
- TGI [7]: > 100 µM
- GI50 [8]: 2.01 µM
- TGI [8]: > 100 µM
- GI50 [9]: 0.362 µM
- TGI [9]: > 39.2 µM
- GI50 [10]: 2.57 µM
- TGI [10]: > 69.1 µM

SMILES: CC(=O)OC1CC(O)C23COC(O)C1(C)C2CC(O)C1(C)C3C(=O)C(O)C2(C)C(c3ccoc3)CC3OC321 (configuration not stated)
- GI50 [1]: < 0.01 µM
- GI50 [2]: < 0.0486 µM
- TGI [2]: > 100 µM
- GI50 [3]: 0.0793 µM
- TGI [3]: > 59.8 µM
- GI50 [4]: < 0.0162 µM
- TGI [4]: > 100 µM
- GI50 [5]: > 36 µM
- TGI [5]: > 100 µM
- GI50 [6]: > 100 µM
- TGI [6]: > 100 µM
- GI50 [7]: > 100 µM
- TGI [7]: > 100 µM
- GI50 [8]: 0.0674 µM
- TGI [8]: > 100 µM
- GI50 [9]: < 0.01 µM
- TGI [9]: 0.0127 µM
- GI50 [10]: > 100 µM
- TGI [10]: > 100 µM

SMILES: CCCCCCCC(CC(=O)NC(CO)C(=O)NC(CO)CC(C)C)OC(=O)CC(CCCCCCC)OC(=O)CC(CCCCCCC)OC1OC(C)C(O)C(OC2OC(C)C(O)C(OC(C)=O)C2O)C1O (configuration not stated)
- TGI [1]: 31.4 µM
- TGI [2]: 26.1 µM
- TGI [3]: 22.6 µM
- TGI [4]: 21.4 µM
- TGI [5]: 24 µM
- TGI [6]: 26.1 µM
- TGI [7]: 24.7 µM
- TGI [8]: 25 µM
- TGI [9]: 16.8 µM
- TGI [10]: 29.2 µM

SMILES: O=C1c2ccccc2-c2c1c1ccccc1c(=O)n2Cc1ccccc1
- TGI [3]: > 100 µM
- TGI [4]: > 100 µM
- TGI [5]: > 100 µM
- TGI [6]: > 100 µM
- TGI [7]: > 100 µM
- TGI [8]: > 100 µM
- TGI [9]: > 100 µM
- TGI [10]: > 100 µM

SMILES: COc1ccc2c(c1)C(=O)c1c-2n(CCCn2ccnc2)c(=O)c2ccccc12
- GI50 [1]: 0.548 µM
- TGI [1]: > 100 µM
- GI50 [2]: 0.128 µM
- TGI [2]: 1.46 µM
- GI50 [4]: 0.213 µM
- TGI [4]: 24.8 µM
- GI50 [5]: 1.24 µM
- TGI [5]: 3.92 µM
- GI50 [6]: 0.471 µM
- TGI [6]: 1.76 µM
- GI50 [7]: 0.0241 µM
- TGI [7]: 1.84 µM
- GI50 [8]: 0.511 µM
- TGI [8]: 4.66 µM
- GI50 [9]: 0.136 µM
- TGI [9]: > 100 µM
- GI50 [10]: 2.09 µM
- TGI [10]: 15.4 µM

SMILES: CCOC(=O)c1cc(/C(=N\O)c2cc(OC)c(OC)c(OC)c2)n2cc(C)cc(C)c12
- GI50 [2]: 2.76 µM
- TGI [2]: 7.64 µM
- GI50 [3]: 2.08 µM
- TGI [3]: 6.45 µM
- GI50 [6]: 1.99 µM
- TGI [6]: 6.74 µM
- GI50 [7]: 1.93 µM
- TGI [7]: > 100 µM
- GI50 [8]: 3.99 µM
- TGI [8]: > 100 µM
- GI50 [10]: 3.66 µM
- TGI [10]: 51.3 µM

SMILES: CCOC(=O)c1c(CN2CCN(c3ccccc3)CC2)n(-c2ccccc2)c2cc(Br)c(O)cc12
- GI50 [1]: 6.32 µM
- TGI [1]: > 100 µM
- GI50 [2]: 3.61 µM
- TGI [2]: 21.3 µM
- GI50 [3]: 15 µM
- TGI [3]: 41.6 µM
- GI50 [4]: 0.0602 µM
- TGI [4]: > 100 µM
- GI50 [5]: 9.98 µM
- TGI [5]: 44.8 µM
- GI50 [6]: 12.7 µM
- TGI [6]: 26.8 µM
- GI50 [7]: 4.01 µM
- TGI [7]: 47.5 µM
- GI50 [8]: 3.58 µM
- TGI [8]: > 100 µM
- GI50 [9]: 3.56 µM
- TGI [9]: 29.5 µM
- GI50 [10]: 25 µM
- TGI [10]: 58.9 µM

SMILES: COc1ccc(C(=O)c2cc(C)c(OC)c(C)c2)c(OC)c1N(C(=O)C(Cl)Cl)C(=O)C(Cl)Cl
- GI50 [1]: 0.0487 µM
- TGI [1]: > 100 µM
- GI50 [2]: 0.0381 µM
- TGI [2]: 15.7 µM
- GI50 [3]: 0.0338 µM
- TGI [3]: > 100 µM
- GI50 [4]: 0.0626 µM
- TGI [4]: > 100 µM
- GI50 [5]: 0.111 µM
- TGI [5]: > 100 µM
- GI50 [6]: < 0.0156 µM
- TGI [6]: 0.0736 µM
- GI50 [7]: 0.0811 µM
- TGI [7]: > 100 µM
- GI50 [8]: 0.0804 µM
- TGI [8]: > 100 µM
- GI50 [9]: 0.122 µM
- TGI [9]: > 100 µM
- GI50 [10]: > 79.8 µM
- TGI [10]: > 100 µM

SMILES: CCN1C(=O)CNc2ncc(-c3ccc(-c4ncn[nH]4)nc3C)nc21
- GI50 [1]: 0.358 µM
- TGI [1]: > 100 µM
- GI50 [2]: 0.118 µM
- TGI [2]: 11.3 µM
- GI50 [3]: 0.0917 µM
- TGI [3]: 2.79 µM
- GI50 [4]: 0.215 µM
- TGI [4]: > 34.8 µM
- GI50 [5]: 0.169 µM
- TGI [5]: 8.96 µM
- GI50 [6]: 0.013 µM
- TGI [6]: 0.0613 µM
- GI50 [7]: 0.051 µM
- TGI [7]: 10.7 µM
- GI50 [8]: 0.263 µM
- TGI [8]: 7.24 µM
- GI50 [9]: 0.139 µM
- TGI [9]: 1.54 µM
- GI50 [10]: 0.0833 µM
- TGI [10]: 1.36 µM

Source: PubChem BioAssay (NCI)
